The test system of assay [1] is ER-negative human breast cancer cells MDA-MB-231. Description: MTT antiproliferative assay, MDA-MB-231 cells. The assay is classed as cell-based. The following applies: for IC50: Homo sapiens; for antiproliferative activity (in words): MDA-MB-231. How it is done:
(§1) For each of the assays performed the compounds were dissolved in aqueous culture media by binding the compounds with bovine serum albumin (BSA).
(§2) An amount of each compound appropriate for the desired final compound concentration was placed in a 1.5 mL screw top glass vial and dissolved in 100 μL of 100% ethanol. Once dissolved, this ethanol/compound solution was added to a small volume of sterile 10% BSA in water and incubated overnight at 37° C. […] Ethanol was added to all treatment media such that the final ethanol concentration was the same in all treatment groups within a given experiment and was always less than 0.1%. Although the examples provided have been described in conjunction with specified amounts of ethanol and other compounds it should be understood that the invention is applicable to embodiments not having those limited concentration.
(§3) The cell growth of MCF7 (Example 24) and MDA-MB-231 (Example 25) cell lines was measured using the MTT assay procedures described above and an MTT assay kit (TACS™, Trevogen®, Inc., Gaithersburg, Md.). After passing the cells for 3-4 times, growing cells were incubated in a 96-well plate at a density of 8×10^3 cells per well, and allowed to attach for 24 hours. Complete growth medium was then replaced with 100 μL of RPMI serum free medium (GIBCO-Invitrogen, NY) containing various doses (20, 10, 5, 2 μM) of the tested compound and the culture continued at 37° C. under 5% CO2. After 96 hours, the incubated cells were treated with MTT solution (10 μL/well) at 37° C. for 4 hours. The color reaction was stopped by the addition of solubilization/stop solution (100 μL/well). The cells continued to be incubated at 37° C. to completely dissolve the formazan product. Absorbance of the samples was determined at 570 nm with an ELISA plate reader (BioTek, VT). Absorbance readings were converted to estimated cell numbers based on a standard curve prepared by plating various concentration of cells, as determined by hemocytometer, and measuring the absorbance of those cells at the start of each experiment. The IC50 value of each compound was calculated using nonlinear regression (curve fit) of log concentration versus the number of cells/well implemented using GraphPad Prism 5.0 program. The procedure was identical for both human breast cancer cell lines MCF7 and MDA-MB-231.
In general terms: Tetrazolium assays rely on reduction of a dye to a coloured formazan, in cell work by metabolically active cells.

In assay [2] the test system is highly malignant+SA mouse mammary epithelial cell line. Kind of assay: MTT antiproliferative assay, +SA mouse mammary epithelial cells. The class given is cell-based. The method, then: The antiproliferative effects of Compounds 1-21 were tested using 3-(4,5-dimethylthiazol-2-yl)-2,5-diphenyl tetrasolium bromide (MTT) colorimetric assay utilizing cultures of the highly malignant+SA mouse mammary epithelial cell line maintained on serum-free media and containing 10 ng/mL epidermal growth factor (EGF) and 10 μg/mL insulin as mitogens using 24-well culture plates (6 wells/group) by MTT assay.
Cells were then divided into different treatment groups and given fresh control or treatment media every day. In growth inhibition studies, (IC50), +SA cells were treated with various doses of individual tocotrienol or tocotrienol derivatives for 4 days and then the viable cell number was determined using the MTT assay. Optical density of each sample was read at 570 nm on a microplate reader (SpectraCount, Packard BioScience Company, Meriden, Conn.) against a blank prepared from cell-free cultures. The number of cells/well was calculated against a standard curve prepared by plating various concentrations of cells, as determined by hemocytometer, at the start of each experiment. See McIntyre referenced above.
as §1, §2

The subject of assay [3] is ER-positive human breast cancer cells MCF7. Kind of assay: MTT antiproliferative assay, MCF7 cells. The class given is cell-based. To be noted: for IC50: Homo sapiens. The method, then:
as §1, §2, §3

In assay [4] the test system is highly metastatic breast cancer cell line MDA-MB-231. Kind of assay: BME Cell Invasion Assay (Boyden chamber, calcein-AM). The following applies: for anti-invasive activity (in words): MDA-MB-231, 5 μM. The class given is cell-based, human. The method, then: Anti-Invasion Assays were performed to measure the anti-invasive properties of Compounds 1-21 using a 96 well basement membrane extract “BME” Cell Invasion Assay (Cultrex®, Trevogen, Catalog# 3455-096-K) with the highly metastatic breast cancer cell line MDA-MB-231. This assay employs a simplified Boyden Chamber design with a polyethylene terephthalate membrane (8 μm). Detection of cell invasion is quantified using calcein-AM. Cells internalize calcein-AM and intracellular esterases cleave the acetomethylester moiety to generate free calcein. Free calcein fluoresces brightly, and this fluorescence may be used to quantify the number of cells that have invaded across BME. (See Tamilarasan and Borghesani, referenced above)
About […] of basement membrane extract (BME, 1×) coat was added per well. After overnight incubation at 37° C. in a 5% CO2 incubator, 50,000/50 μL of MDA-MB-231 cells in serum free RPMI medium were added to the top chamber of each well, which contained the tested compound at a treatment concentration of 5 μM. About 150 μL of RPMI medium was added to the lower chamber, which contained 10% fetal bovine serum, penicillin/streptomycin, and fibronectin (1 μL/mL) and N-formyl-met-leu-phe (10 nM) as chemoattractants. Cells were allowed to migrate to the lower chamber at 37° C. in a CO2 incubator. After 24 h, the top and bottom chambers were aspirated and washed with a washing buffer solution. About 100 μL of cell dissociation solution/Calcein-AM solution was added to the bottom chamber and incubated for 1 hour at 37° C. in a CO2 incubator. The cells internalized calcein-AM, and the intracellular esterases cleaved the acetomethylester (AM) moiety to generate free calcein. Fluorescence of the samples was determined at 485 nm excitation; 520 nm emissions were measured using a plate reader (BioTek, VT). The numbers of cells that invaded through the BME coat were calculated using a standard curve.
Differences among the various treatment groups were determined by analysis of variance (ANOVA) followed by Dunnett's t-test. Differences were considered to be statistically significant at a value of <0.05, as compared to vehicle treated controls.

Setting [5] is: MDA-MB-231, 96 h, read-out: MDA-MB-231 IC50 μM.
The mark [6] stands for this setting: MCF7, 96 h, read-out: MCF7 IC50 μM.

Where two headings read alike, the source gives them in different places.

For orientation: IC50 means the concentration that gives 50% inhibition. As for `CC(C)=CCC/C(C)=C/CC/C(C)=C/CC[C@]1(C)CCc2cc(OC(=O)NS(=O)(=O)c3ccc(C)cc3)c(C)c(C)c2O1` [Compound 8, (R)-2,7,8-trimethyl-2-((3E,7E)-4,8,12-trimethyltrideca-3,7,11-trienyl)chroman-6-yl tosylcarbamate], the IC50 in assay [1] (setting [5]) was over 10 µM; in assay [2] (Mus musculus, +SA cell, 96 h), 2 µM; in assay [3] (setting [6]), 5.1 µM; in assay [3] (MCF7, read-out: IC50 values (range)) it was 5 to 10 µM. Further, the “activity relative to parent γ-tocotrienol (2)” value in assay [2] (+SA cells, versus Compound 2) is given as about 2 fold. Also, the “potency relative to parent natural tocotrienol” value in assay [3] (MCF7, 4 and 10 versus Compound 1, 8 versus Compound 2) is reported as about 3 fold.
Take `CC(C)=CCC/C(C)=C/CC/C(C)=C/CC[C@]1(C)CCc2c(C)c(OC(=O)NCc3ccccc3)c(C)c(C)c2O1` [Compound 16, (R)-2,5,7,8-tetramethyl-2-((3E,7E)-4,8,12-trimethyltrideca-3,7,11-trienyl)chroman-6-yl benzylcarbamate]: the IC50 in assay [1] (setting [5]) is 7.2 µM; in assay [3] (setting [6]), over 20 µM. Further, the “antiproliferative activity (in words)” value in assay [1] was “improved activities”. The MDA-MB-231 cells invasion in assay [4] (5 μM, 24 h) is given as 8%. Also, in assay [4], the “anti-invasive activity (in words)” value is “more active than their natural tocotrienol parent compounds”.
`CC(C)=CCC/C(C)=C/CC/C(C)=C/CC[C@]1(C)CCc2cc(OC(=O)NS(=O)(=O)c3ccc(C)cc3)cc(C)c2O1` [Compound 9, (R)-2,8-dimethyl-2-((3E,7E)-4,8,12-trimethyltrideca-3,7,11-trienyl)chroman-6-yl tosylcarbamate]: the IC50 in assay [1] (setting [5]) is 6.6 µM; in assay [1] (MDA-MB-231, read-out: IC50 (range)) it was 5 to 10 µM; in assay [3] (setting [6]), over 10 µM. For the same compound, the “antiproliferative activity (in words)” value in assay [1] is “improved activities”; in assay [2] (+SA cells), “activity better than that of its parent tocotrienol”. In assay [4], the “anti-invasive activity (in words)” value is given as “more active than their natural tocotrienol parent compounds”.

The record behind these values is patent US8268786B2, “Anti-cancer tocotrienol analogues and associated methods” (First Tech International Limited, priority 2009, dated 2012).
